Assay results from PMC9606270, “First direct evidence for direct cell-membrane penetrations of polycationic homopoly(amino acid)s produced by bacteria” (Communications Biology, 2022).

B1: Cre: recombinant Cre recombinase (38 kDa), unconjugated control (protein, UniProt P06956 1-343, looked up)
Recombinase cre: MSNLLTVHQNLPALPVDATSDEVRKNLMDMFRDRQAFSEHTWKMLLSVCRSWAAWCKLNNRKWFPAEPEDVRDYLLYLQARGLAVKTIQQHLGQLNMLHRRSGLPRPSDSNAVSLVMRRIRKENVDAGERAKQALAFERTDFDQVRSLMENSDRCQDIRNLAFLGIAYNTLLRIAEIARIRVKDISRTDGGRMLIHIGRTKTLVSTAGVEKALSLGVTKLVERWISVSGVADDPNNYLFCRVRKNGVAAPSATSQLSTRALEGIFEATHRLIYGAKDDSGQRYLAWSGHSARVGAARDMARAGVSIPEIMQAGGWTNVNIVMNYIRNLDSETGAMVRLLEDGD
B2: 16: Cre recombinase (38 kDa) conjugated with 8 (conjugate, UniProt P06956 1-343, looked up)
Recombinase cre: B1 Recombinase cre
modifications: conjugated to ε-poly-α-lysine polymer 8

Tests used:
peptidases/proteinases = conditions: due to isopeptide-bond linkages; cited from earlier work
Description: In this context, a bacterium-origin polycationic polymer, ε-PαL (1) (Fig. 1a), has garnered increasing interest in recent years as an alternative to canonical cationic CPPs. […] However, the cati ... || Practical intracellular delivery of biological macromolecules (biopharmaceuticals) would dramatically transform therapeutic approaches and foster experimental breakthroughs because numerous potential drug targets (cytokines, growth factors, and signal transduction proteins) are in the cell interior[44]. CPPs are among the most promising strategies, and CPP-driven technology currently revolves around natural and synthetic eupeptides. Poly-L/D-arginine[13]–[15], poly-L-histidine[45], and poly-L/D-lysine[46], which were chemically or genetically produced, have been used as CPPs. To enable the del ...

HeLa cells = conditions: cited from earlier work
Description: page 5: Response to reviewers … Reviewer #1: Thank you so much for your valuable comments concerning our original manuscript. Your comment #1: The manuscript is well prepared and written except for the cytotoxicity of these polycationic isopeptides. […] However, we did n ...

[1] = cited from earlier work
Description: (§1) In this context, a bacterium-origin polycationic polymer, ε-PαL (1) (Fig. 1a), has garnered increasing interest in recent years as an alternative to canonical cationic CPPs. […] However, the cati ...

mammalian cells = conditions: cited from earlier work
Description: as §1

[2] = cited from earlier work; remark: listed apart in the source
Description: To address the growing worldwide demand for CPPs, structurally and functionally distinct CPPs are required to circumvent the canonical CPP drawbacks such as cytotoxicity. This study, therefore, focused on the cytotoxicities of ε-PαL (1) against mammalian cells, while the nontoxicity of 1 in vivo has also been reported so that ε-PαL is used as a natural food preservative in several countries[1],[42]. However, the in vitro cytotoxicity of 1 in other cell lines has remained unclear. We therefore performed the MTT cell viability assay with 1 in K562, HepG2, and HEK293T cells in addition to HeLa ce ...

[3] = test system: Cre/loxP recombination in HEK293T cells; assay: Cre/loxP recombination by intracellularly delivered Cre (reporter plasmid pmKO_loxP_mAG); assay type: cell-based, human; conditions: HEK293T transfected with pmKO_loxP_mAG; 50 μM, 60 min, 37°C, then 24 h culture; microscopy; mean ± s.d. (n = 3)
Description: The synthetic DNA fragment carrying two loxP sequences, one TGA stop codon, and the ampicillin resistance gene (Amp^r gene) (Supplementary Table 30) was ligated with pmKO1-MC1 digested by Bam HI and Eco RI. The resulting plasmid, pmKO_loxP, was digested with Eco RI and Hind III and ligated with the mAG gene fragment amplified by the PCR primers (pmKO1_mAG-F and pmKO1_mAG-R, Supplementary Table 29) to yield the Cre activity reporter plasmid (pmKO_loxP_mAG).
HEK293T cells were transfected with the plasmid pmKO_loxP_mAG using FuGENE Transfection (Promega) according to the manufacturer’s specifications. The cells were washed with DMEM medium and then treated with 50 µM of ε-PαL-Cre (16) at 37 °C for 60 min. The cells were then washed with PBS, followed by 100 µg ml^−1 heparin in PBS, and then two more times with PBS. Finally, fresh DMEM containing 10% FBS was added and incubated at 37 °C for 24 h to express a fluorescent protein. The live-cell imaging was captured by fluorescence microscopy (Leica DMi8).

| Molecule | Proteolytic resistance (peptidases/proteinases) | Gene recombination ratio (green cells) [3] | other results |
| --- | --- | --- | --- |
| ε-oligo-L-β-lysine [Compound 2] | resistant to peptidases/proteinases |  | Cytotoxicity in HeLa cells (HeLa cells): no cytotoxicity |
| ε-poly-L-α-lysine [Compound 1] | proteolytic resistance |  | Antimicrobial activities [1]: potent; Cytotoxicity (mammalian cells): nondetectable levels; Toxicity in vivo [2]: nontoxicity |
| B1 |  | 6.8% ± 0.1% |  |
| B2 |  | 65.6% ± 2.7% |  |
